Laboratory results as given in patent publication US12090140B2, “Non-sedating dexmedetomidine treatment regimens” (priority 2023, dated 2024).
Like-named read-outs stand apart in the source and are kept apart here.

Tests used:
[1] = test system: mouse lymphoma cell; settings: mammalian mouse lymphoma cell forward mutation assay; cited from earlier work
[2] = test system: pregnant rats and offspring; settings: rat, cited from earlier work
[3] = human, in vivo, iv
Description: Mean infusion rate is 0.36 mcg/kg/hr with the maximum rate ranging from about 0.2 mcg/kg/hr to about 0.6 mcg/kg/hr (see FIGS. 18 to 20).

[4] = test system: pregnant rats; settings: rat, cited from earlier work
[5] = test system: plasma proteins; settings: cited from earlier work
[6] = test system: adult patients and healthy adult subjects; settings: loading IV bolus of undiluted drug, 19.4 mcg/kg; one patient; cited from earlier work
[7] = test system: human lymphocyte; settings: cited from earlier work
[8] = test system: pregnant rabbits; settings: rabbit; intravenous up to 96 mcg/kg/day, GD 6 to 18; cited from earlier work
[9] = test system: agitation in subjects suffering from schizophrenia
[10] = test system: bacterial reverse mutation; settings: in vitro Ames bacterial reverse mutation test; cited from earlier work
[11] = test system: bone marrow of CD-1 and NMRI mice; settings: cited from earlier work
[12] = test system: cytochrome P450; settings: human liver microsomes; cited from earlier work
[13] = test system: male or female rats; settings: daily subcutaneous injections up to 54 mcg/kg; cited from earlier work
[14] = cited from earlier work
[15] = cited from earlier work; remark: listed apart in the source
[16] = radiolabeled, intravenous, after nine days

For Cc1cccc([C@H](C)c2cnc[nH]2)c1C [Dexmedetomidine, (+) 4-(S)-[1-(2,3-dimethylphenyl)ethyl]-1H-imidazole], the Mutagenicity [1] is listed as “not mutagenic”, the “Developmental findings when first generation offspring were mated” value ([2]; 32 mcg/kg/day) is listed as “Decreased viability of second generation offspring and an increase in early implantation loss along with delayed motor development” and the Developmental findings ([2]; subcutaneous 8 mcg/kg/day, GD 16 to PND 25) is listed as “Reduced pup and adult offspring weights and grip strength”. The “Time to reach Cmax” value [3] was 15 to 105 min, the Malformations ([4]; any dose level) was “No malformations” and the Embryo-fetal findings ([4]; subcutaneous 20 mcg/kg/day) was “No embryo-fetal toxicity”. For the same molecule, the Embryo-fetal findings ([4]; subcutaneous 200 mcg/kg/day, GD 5 to 16, with maternal toxicity) was “Increased post-implantation losses and reduced live pups”, the “Fraction bound to plasma proteins in hepatic impairment versus healthy subjects” value [5] was “significantly decreased” and the Average protein binding ([5]; plasma of healthy male and female subjects) was 94%. The Effects of overdose [6] was “cardiac arrest”, the Clastogenicity ([7]; absence or presence of human liver S9 metabolic activation) was “not clastogenic” and the Clastogenicity ([7]; presence of rat liver S9 metabolic activation) was “weak clastogenic response”. For the same molecule, the “Malformation or embryo-fetal toxicity” value [8] was “No malformation or embryo-fetal toxicity”, the PEC value ([9]; Patient 1 (treatment arm), 0 min after infusion start) was 9 and the PEC value ([9]; Patient 1 (treatment arm), 15 min after infusion start) was 5. For the same molecule, the PEC value ([9]; Patient 2 (treatment arm), 0 min after infusion start) was 16, the PEC value ([9]; Patient 2 (treatment arm), 15 min after infusion start) was 13 and the PEC value ([9]; Patient 2 (treatment arm), 30 min after infusion start) was 12. The PEC value ([9]; Patient 2 (treatment arm), 45 min after infusion start) was 11, the PEC value ([9]; Patient 2 (treatment arm), 60 min after infusion start) was 9 and the PEC value ([9]; Patient 2 (treatment arm), 75 min after infusion start) was 7. The PEC value ([9]; Patient 3 (treatment arm), 0 min after infusion start) was 12, the PEC value ([9]; Patient 3 (treatment arm), 15 min after infusion start) was 12 and the PEC value ([9]; Patient 3 (treatment arm), 30 min after infusion start) was 10. It also gave a PEC value ([9]; Patient 3 (treatment arm), 45 min after infusion start) of 7, a PEC value ([9]; Patient 3 (treatment arm), 60 min after infusion start) of 6 and a PEC value ([9]; Patient 4 (treatment arm), 0 min after infusion start) of 9. It also gave a PEC value ([9]; Patient 4 (treatment arm), 15 min after infusion start) of 9, a PEC value ([9]; Patient 4 (treatment arm), 30 min after infusion start) of 8 and a PEC value ([9]; Patient 4 (treatment arm), 45 min after infusion start) of 8. For the same molecule, the PEC value ([9]; Patient 4 (treatment arm), 60 min after infusion start) was 7, the PEC value ([9]; Patient 4 (treatment arm), 75 min after infusion start) was 7 and the PEC value ([9]; Patient 4 (treatment arm), 90 min after infusion start) was 7. For the same molecule, the PEC value ([9]; Patient 4 (treatment arm), 120 min after infusion start) was 7, the PEC value ([9]; Patient 4 (treatment arm), […] after infusion start) was 7 and the PEC value ([9]; Patient 11 (treatment arm), 0 min after infusion start) was 13. It also gave a PEC value ([9]; Patient 11 (treatment arm), 15 min after infusion start) of 13, a PEC value ([9]; Patient 11 (treatment arm), 30 min after infusion start) of 11 and a PEC value ([9]; Patient 11 (treatment arm), 45 min after infusion start) of 9. It also gave a PEC value ([9]; Patient 11 (treatment arm), 60 min after infusion start) of 9, a PEC value ([9]; Patient 11 (treatment arm), 75 min after infusion start) of 7 and a PEC value ([9]; Patient 12 (treatment arm), 0 min after infusion start) of 13. The PEC value ([9]; Patient 12 (treatment arm), 15 min after infusion start) was 13, the PEC value ([9]; Patient 12 (treatment arm), 30 min after infusion start) was 13 and the PEC value ([9]; Patient 12 (treatment arm), 45 min after infusion start) was 10. For the same molecule, the PEC value ([9]; Patient 12 (treatment arm), 60 min after infusion start) was 10, the PEC value ([9]; Patient 12 (treatment arm), 75 min after infusion start) was 8 and the PEC value ([9]; Patient 12 (treatment arm), 90 min after infusion start) was 6. The PEC value ([9]; Patient 12 (treatment arm), […] after infusion start) was 5, the PEC value ([9]; Patient 14 (treatment arm), 0 min after infusion start) was 10 and the PEC value ([9]; Patient 14 (treatment arm), 15 min after infusion start) was 9. The PEC value ([9]; Patient 14 (treatment arm), 30 min after infusion start) was 6, the PEC value ([9]; Patient 14 (treatment arm), 45 min after infusion start) was 6 and the PEC value ([9]; Patient 14 (treatment arm), 60 min after infusion start) was 5. It also gave a PEC value ([9]; Patient 14 (treatment arm), 75 min after infusion start) of 5, a PEC value ([9]; Patient 16 (treatment arm), 0 min after infusion start) of 10 and a PEC value ([9]; Patient 16 (treatment arm), 15 min after infusion start) of 9. It also gave a PEC value ([9]; Patient 16 (treatment arm), 30 min after infusion start) of 6, a PEC value ([9]; Patient 16 (treatment arm), 45 min after infusion start) of 6 and a PEC value ([9]; Patient 16 (treatment arm), 60 min after infusion start) of 7. It also gave a PEC value ([9]; Patient 16 (treatment arm), 75 min after infusion start) of 5, a PEC value ([9]; Patient 17 (treatment arm), 0 min after infusion start) of 10 and a PEC value ([9]; Patient 17 (treatment arm), 15 min after infusion start) of 8. The PEC value ([9]; Patient 17 (treatment arm), 30 min after infusion start) was 7, the PEC value ([9]; Patient 17 (treatment arm), 45 min after infusion start) was 5 and the Mutagenicity [10] was “not mutagenic”. The Clastogenicity ([11]; CD-1 mice) was “not clastogenic”, the Clastogenicity ([11]; NMRI mice) was “some evidence for clastogenicity” and the “Cytochrome P450 mediated drug interactions” value [12] was “no evidence of cytochrome P450 mediated drug interactions”. For the same molecule, the Fertility [13] was “not affected”, the “Pharmacokinetics (Cmax, Tmax, AUC, t½, CL, and V) in renal impairment versus normal renal function” value ([14]; creatinine clearance <30 mL/minute) was “not significantly different” and the Extent of biotransformation ([14]; direct glucuronidation and cytochrome P450 (primarily CYP2A6)) was “almost complete biotransformation”. The Clearance ([14]; intravenous administration) was “approximately 39 L/h”, the “Steady-state volume of distribution (Vss)” value ([14]; intravenous administration) was “approximately 118 liters” and the “Radioactivity recovered in the feces” value [14, 16] was 4%. The “Radioactivity recovered in the urine” value [14, 16] was 95%, the “Aliphatic hydroxylation products, share of the dose in urine” value ([14]; radiolabeled, intravenous) was “approximately 14%” and the “N-methylation products, share of the dose in urine” value ([14]; radiolabeled, intravenous) was “approximately 18%”. The “Products of N-glucuronidation, share of cumulative urinary excretion” value ([14]; radiolabeled, intravenous) was “approximately 34%”, the “Share of urinary radioactivity excreted within 24 hours after the infusion” value ([14]; radiolabeled, intravenous) was “Approximately 85%” and the “Unchanged drug in the urine” value ([14]; radiolabeled, intravenous) was “No unchanged dexmedetomidine was detected”. For the same molecule, the “Urinary metabolites not identified” value ([14]; radiolabeled, intravenous) was “Approximately 28%”, the “Clearance in hepatic impairment (Child-Pugh Class A, B, or C)” value ([14]; versus normal hepatic function) was “decreased” and the Placental transfer ([15]; available data in humans) was “crosses the placenta”. For the same molecule, the “Presence in human milk” value ([15]; following intravenous administration, published literature) was “presence of dexmedetomidine in human milk”.
